One series has as its system Sphaerotheca fuliginea. Put plainly: Example D: in vivo test on Sphaerotheca fuliginea (powdery mildew on cucumber). To be noted: Podosphaera fuliginea, 288 h, cucumber plants sprayed 24 hours before inoculation, scored after 12 days, read-out: % Wirkungsgrad. As to the method: In Vivo Test on Sphaerotheca Fuliginea (Powdery Mildew on Cucumber) An aqueous suspension of the active substance was prepared by homogenization of a mixture of acetone/Tween/dimethyl sulphoxide and subsequent dilution with water to the desired concentration. Cucumber plants (variety: Vert petit de Paris) are sown in cultivation dishes on a peat-pozzolanic earth substrate (50/50) at 20/23° C. and at the cotyledon stage Z10 sprayed with the aqueous suspension described above. As a control, plants are sprayed with an aqueous solution with no active substance. After 24 hours the plants are inoculated by spraying with an aqueous suspension of Sphaerotheca fuliginea spores (100,000 spores per ml). The spores are derived from a contaminated plant. The inoculated cucumber plants are incubated at ca. 20/25° C. at a relative atmospheric humidity of 60/70%. After 12 days they are scored in comparison with the control plants.

In series [1] the test system is Mycosphaerella graminicola. The experiment in a line: Example G: in vivo test on Mycosphaerella graminicola (wheat leaf blotch disease). To be noted: Zymoseptoria tritici, wheat plants sprayed 24 hours before inoculation, scored after 21 to 28 days, read-out: % Wirkungsgrad. How it is done:
In Vivo Test on Mycosphaerella Graminicola (Wheat Leaf Blotch Disease) An aqueous suspension of the active substance was prepared by homogenization of a mixture of acetone/Tween/dimethyl sulphoxide and subsequent dilution with water to the desired concentration. Wheat plants (variety: Scipion) are sown in cultivation dishes on a peat-pozzolanic earth substrate (50/50) at 12° C. and sprayed at the first-leaf stage (10 cm size) with the aqueous suspension described above. As a control, plants are sprayed with an aqueous solution with no active substance. After 24 hours the plants are inoculated by spraying with an aqueous suspension of Mycosphaerella graminicola spores (500,000 spores per ml). The spores are derived from a 7 day-old culture. […] After 21 to 28 days they are scored in comparison with the control plants.

Another series in a line: physchem. To be noted: LogPA (logP of the stated pure compound or, in a mixture, of the main isomer, 1-substituted 3-aryl-1H-pyrazole).
The test system of the next series is Botrytis cinerea. Put plainly: Example B: in vivo test on Botrytis cinerea (grey mould on cucumbers). To be noted: cucumber plants sprayed 24 hours before inoculation, scored after 5-7 days, read-out: % Wirkungsgrad. As to the method:
In Vivo Test on Botrytis Cinerea (Grey Mould on Cucumbers) An aqueous suspension of the active substance was prepared by homogenization of a mixture of acetone/Tween/dimethyl sulphoxide and subsequent dilution with water to the desired concentration. Cucumber plants (variety: Vert petit de Paris) are sown in cultivation dishes on a peat-pozzolanic earth substrate (50/50) at 18-20° C. and sprayed at the cotyledon stage Z11 with the aqueous suspension described above. As a control, plants are sprayed with an aqueous solution with no active substance. […] The spores are derived from a 15 day-old culture which are suspended in the following nutrient solution: • 20 g/l gelatine • 50 g/l D-fructose • 2 g/l NH4NO3 • 1 g/l KH2PO4 The inoculated cucumber plants are kept for 5-7 days in a climatic chamber at […] After 5-7 days they are scored in comparison with the control plants.

Each structure is given as a SMILES string.

For the compound `Fc1cccc(F)c1-c1c(-c2ccncc2)cnn1C1CCCC1` [Compound 17], the pest or weed control at 500 ppm with Sphaerotheca fuliginea is 80%; in series [1], 88%; in the series with Botrytis cinerea, 83%. For the same compound, the chromatographic logP in “physchem” was found to be 1.74.
For the compound `Fc1cccc(F)c1-c1nn(C2CCC2)cc1-c1ccncc1` [Compound 8], the pest or weed control at 500 ppm was determined as 92% in series [1] and 94% with Botrytis cinerea. Besides, the chromatographic logP in “physchem” worked out at 1.56.
As for `CC(C)Cn1cc(-c2ccncc2)c(-c2c(F)cccc2F)n1` [Compound 13], the pest or weed control at 500 ppm in the series with Sphaerotheca fuliginea amounted to 90%; in series [1], 95%; in the series on Botrytis cinerea, 100%. For the same compound, the chromatographic logP in “physchem” was 1.62.
The corresponding values for `CC(C)n1cc(-c2ccncc2)c(-c2c(F)cccc2F)n1` [Compound 14] are 80%, 88%, 100% and 1.4.

Broadly, the chromatographic logP is a lipophilicity value derived from retention on a column.

The values are drawn from US20110183978A1, “Phenylpyri(mi)dinylazoles” (Bayer CropScience AG, priority 2009, published 2011).
